In the experiment the target is T1, PD-1-Ig binding to PD-L1-TVMV-His (PD-L1-His) (Homo sapiens, UniProt Q9NZQ7).
T1 construct: hPDL1(19-239)-TVMV-His; made in house; host or cells: HEK293T
As to the kind of experiment: PD-1/PD-L1 Homogenous Time-Resolved Fluorescence (HTRF) binding assay. Conditions: PD-L1-His 10 nM, PD-1-Ig 20 nM. The source says:
Methods for Testing the Ability of Macrocyclic Peptides to Compete for the Binding of Pd-1 to Pd-L1 Using Homogenous Time-Resolved Fluorescence (HTRF) Binding Assays
The ability of the macrocyclic peptides of the present disclosure to bind to PD-L1 was investigated using a PD-1/PD-L1 Homogenous Time-Resolved Fluorescence (HTRF) binding assay.
Homogenous Time-Resolved Fluorescence (HTRF) Assays of Binding of Soluble PD-1 to Soluble PD-L1. Soluble PD-1 and soluble PD-L1 refers to proteins with carboxyl-end truncations that remove the transmembrane-spanning regions and are fused to heterologous sequences, specifically the Fc portion of the human immunoglobuling G sequence (Ig) or the hexahistidine epitope tag (His). All binding studies were performed in an HTRF assay buffer consisting of dPBS supplemented with 0.1% (w/v) bovine serum albumin and 0.05% (v/v) Tween-20. For the PD-1-Ig/PD-L1-His binding assay, inhibitors were pre-incubated with PD-L1-His (10 nM final) for 15 m in 4 μl of assay buffer, followed by addition of PD-1-Ig (20 nM final) in 1 μl of assay buffer and further incubation for 15 m. PD-L1 fusion proteins from either human, cynomologous macaques, mouse, or other species were used. HTRF detection was achieved using europium crypate-labeled anti-Ig monoclonal antibody (1 nM final) and allophycocyanin (APC) labeled anti-His monoclonal antibody (20 nM final). Antibodies were diluted in HTRF detection buffer and 5 μl was dispensed on top of binding reaction. The reaction was allowed to equilibrate for 30 minutes and signal (665 nm/620 nm ratio) was obtained using an EnVision fluorometer. Additional binding assays were established between PD-1-Ig/PD-L2-His (20 and 5 nM, respectively), CD80-His/PD-L1-Ig (100 and 10 nM, respectively) and CD80-His/CTLA4-Ig (10 and 5 nM, respectively). Binding/competition studies between biotinylated Compound No. 71 and human PD-L1-His were performed as follows. Macrocyclic peptide inhibitors were pre-incubated with PD-L1-His (10 nM final) for 60 minutes in 4 μl of assay buffer followed by addition of biotinylated Compound No. 71 (0.5 nM final) in 1 μl of assay buffer. Binding was allowed to equilibrate for 30 minutes followed by addition of europium crypated labeled Streptavidin (2.5 pM final) and APC-labeled anti-His (20 nM final) in 5 μl of HTRF buffer. The reaction was allowed to equilibrate for 30 m and signal (665 nm/620 nm ratio) was obtained using an EnVision fluorometer.
Recombinant Proteins. Carboxyl-truncated human PD-1 (amino acids 25-167) with a C-terminal human Ig epitope tag [hPD-1 (25-167)-3S-IG] and human PD-L1 (amino acids 18-239) with a C-terminal His epitope tag [hPD-L1(19-239)-tobacco vein mottling virus protease cleavage site (TVMV)-His] were expressed in HEK293T cells and purified sequentially by recombinant Protein A affinity chromatography and size exclusion chromatography. Human PD-L2-His (Sino Biologicals), CD80-His (Sino Biologicals), CTLA4-Ig (RnD Systems) were all obtained through commercial sources.
Ranges are as follows: A=0.10-10 μM; B=0.01-0.099 μM; C=0.005-0.0099 μM.

Structures are written as SMILES. Numbered stars: 1 amine (or outer) side, 2 acyl side, 3 side chain; on linkers, the order of the positions; unused ones are H or OH. Bridge positions count the residues as written; N and C are the ends. Square brackets hold non-standard residues; d marks the D form. Peptide text beside a SMILES is read from it. X3 = CCCC[C@@H](C(=O)[*:2])N(CCO)[*:1]; X7 = COCCN([C@@H](C)C(=O)[*:2])[*:1]; X1 = O=C(CN(CCC(F)(F)F)[*:1])[*:2]; Gly(N-2-aminoethyl) = NCCNCC(=O)O; Hyp = O=C(O)[C@@H]1C[C@@H](O)CN1; NMeNle = CCCC[C@H](NC)C(=O)O; NMeA = CN[C@@H](C)C(=O)O; Nphe = O=C(O)CNCc1ccccc1; Dab = NCC[C@H](N)C(=O)O; NEtG = CCNCC(=O)O

T1 sequence (Q9NZQ7 with tags, fused parts or gaps): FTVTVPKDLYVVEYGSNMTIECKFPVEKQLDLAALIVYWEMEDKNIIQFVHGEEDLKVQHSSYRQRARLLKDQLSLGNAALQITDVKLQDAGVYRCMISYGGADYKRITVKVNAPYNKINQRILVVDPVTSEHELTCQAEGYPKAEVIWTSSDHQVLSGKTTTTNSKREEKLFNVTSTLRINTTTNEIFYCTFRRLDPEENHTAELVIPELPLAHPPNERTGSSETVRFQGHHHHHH

Under “numeric value”, `CCCC[C@H]1C(=O)N[C@@H](CC(C)C)C(=O)N[C@H](C(=O)NCC(N)=O)CSCC(=O)N[C@@H](Cc2ccc(O)cc2)C(=O)N(C)[C@@H](C)C(=O)N[C@@H](CC(N)=O)C(=O)N2CCC[C@H]2C(=O)N[C@@H](Cc2cnc[nH]2)C(=O)N[C@@H](CCC(=O)O)C(=O)N2C[C@H](O)C[C@H]2C(=O)N[C@@H](Cc2c[nH]c3ccccc23)C(=O)N[C@@H](CCN)C(=O)N[C@@H](Cc2c[nH]c3ccccc23)C(=O)N(CCC(F)(F)F)CC(=O)N1C` [Example 3038] ({CH2CO}-Y[NMeA]NPHE[Hyp]W[Dab]W[X1][NMeNle]LCG-NH2; thioether N-14) registered an IC50 of 2360 nM. Compound `CCCC[C@H]1C(=O)N(C)[C@@H](CCCC)C(=O)N[C@@H](CC(C)C)C(=O)N[C@H](C(=O)NCC(N)=O)CSCC(=O)N[C@@H](Cc2ccc(O)cc2)C(=O)N(C)[C@@H](C)C(=O)N[C@@H](CC(N)=O)C(=O)N2CCC[C@H]2C(=O)N[C@@H](Cc2cnc[nH]2)C(=O)N[C@@H](CCC(=O)O)C(=O)N(CCN)CC(=O)N[C@@H](Cc2c[nH]c3ccccc23)C(=O)N[C@@H](CCN)C(=O)N[C@@H](Cc2c[nH]c3ccccc23)C(=O)N1C` [Example 3011] ({CH2CO}-Y[NMeA]NPHE[Gly(N-2-aminoethyl)]W[Dab]W[NMeNle][NMeNle]LCG-NH2; thioether N-14) showed a half-maximal inhibitory concentration (IC50) (numeric value) of 6.12 nM. For `CCCC[C@H]1C(=O)N(C)[C@@H](CCCC)C(=O)N[C@@H](CC(C)C)C(=O)N[C@H](C(=O)NCC(N)=O)CSCC(=O)N[C@@H](Cc2ccc(O)cc2)C(=O)N(CCOC)[C@@H](C)C(=O)N[C@@H](CC(N)=O)C(=O)N2CCC[C@H]2C(=O)N[C@@H](Cc2cnc[nH]2)C(=O)N[C@@H](CCC(=O)O)C(=O)N2C[C@H](O)C[C@H]2C(=O)N[C@@H](Cc2c[nH]c3ccccc23)C(=O)N[C@@H](CCN)C(=O)N[C@@H](Cc2c[nH]c3ccccc23)C(=O)N1C` [Example 3026] ({CH2CO}-Y[X7]NPHE[Hyp]W[Dab]W[NMeNle][NMeNle]LCG-NH2; thioether N-14), where the note is “range class”, the IC50 is 10 to 99 nM. The same measure, in the same setting: the same measure for `CCCC[C@H]1C(=O)N(C)[C@@H](CCCC)C(=O)N[C@@H](CC(C)C)C(=O)N[C@H](C(=O)NCC(N)=O)CSCC(=O)N[C@@H](Cc2ccc(O)cc2)C(=O)N(C)[C@@H](C)C(=O)N[C@@H](CC(N)=O)C(=O)N2CCC[C@H]2C(=O)N[C@@H](Cc2cnc[nH]2)C(=O)N[C@@H](CCC(=O)O)C(=O)N(Cc2ccccc2)CC(=O)N[C@@H](Cc2c[nH]c3ccccc23)C(=O)N[C@@H](CCN)C(=O)N[C@@H](Cc2c[nH]c3ccccc23)C(=O)N1C` [Example 3004] ({CH2CO}-Y[NMeA]NPHE[Nphe]W[Dab]W[NMeNle][NMeNle]LCG-NH2; thioether N-14): 10 to 99 nM; for `CCCC[C@H]1C(=O)N(C)[C@@H](CCCC)C(=O)N[C@@H](CC(C)C)C(=O)N[C@H](C(=O)NCC(N)=O)CSCC(=O)N[C@@H](Cc2ccc(O)cc2)C(=O)N(CCC(F)(F)F)CC(=O)N[C@@H](CC(N)=O)C(=O)N2CCC[C@H]2C(=O)N[C@@H](Cc2cnc[nH]2)C(=O)N[C@@H](CCC(=O)O)C(=O)N2C[C@H](O)C[C@H]2C(=O)N[C@@H](Cc2c[nH]c3ccccc23)C(=O)N[C@@H](CCN)C(=O)N[C@@H](Cc2c[nH]c3ccccc23)C(=O)N1C` [Example 3046] ({CH2CO}-Y[X1]NPHE[Hyp]W[Dab]W[NMeNle][NMeNle]LCG-NH2; thioether N-14): 10 to 99 nM. Same read-out and setting: the figure for `CCCC[C@H]1C(=O)N(C)[C@@H](CCCC)C(=O)N[C@@H](CC(C)C)C(=O)N[C@H](C(=O)NCC(N)=O)CSCC(=O)N[C@@H](Cc2ccc(O)cc2)C(=O)N(C)[C@@H](C)C(=O)N[C@@H](CC(N)=O)C(=O)N(CC(=O)O)CC(=O)N[C@@H](Cc2cnc[nH]2)C(=O)N[C@@H](CCC(=O)O)C(=O)N2C[C@H](O)C[C@H]2C(=O)N[C@@H](Cc2c[nH]c3ccccc23)C(=O)N[C@@H](CCN)C(=O)N[C@@H](Cc2c[nH]c3ccccc23)C(=O)N1C` [Example 3015] is 10 to 99 nM. As for `CCCC[C@H]1C(=O)N(C)[C@@H](CCCC)C(=O)N[C@@H](CC(C)C)C(=O)N[C@H](C(=O)NCC(N)=O)CSCC(=O)N[C@@H](Cc2ccc(O)cc2)C(=O)N(C)[C@@H](C)C(=O)N[C@@H](CC(N)=O)C(=O)N(Cc2ccccc2)CC(=O)N[C@@H](Cc2cnc[nH]2)C(=O)N[C@@H](CCC(=O)O)C(=O)N2C[C@H](O)C[C@H]2C(=O)N[C@@H](Cc2c[nH]c3ccccc23)C(=O)N[C@@H](CCN)C(=O)N[C@@H](Cc2c[nH]c3ccccc23)C(=O)N1C` [Example 3008] ({CH2CO}-Y[NMeA]N[Nphe]HE[Hyp]W[Dab]W[NMeNle][NMeNle]LCG-NH2; thioether N-14), for the setting “numeric value”, the IC50 was 200 nM. On to `CCCC[C@H]1C(=O)N[C@@H](CC(C)C)C(=O)N[C@H](C(=O)NCC(N)=O)CSCC(=O)N[C@@H](Cc2ccc(O)cc2)C(=O)N(C)[C@@H](C)C(=O)N[C@@H](CC(N)=O)C(=O)N2CCC[C@H]2C(=O)N[C@@H](Cc2cnc[nH]2)C(=O)N[C@@H](CCC(=O)O)C(=O)N2C[C@H](O)C[C@H]2C(=O)N[C@@H](Cc2c[nH]c3ccccc23)C(=O)N[C@@H](CCN)C(=O)N[C@@H](Cc2c[nH]c3ccccc23)C(=O)N(CCOC)[C@@H](C)C(=O)N1C` [Example 3025] ({CH2CO}-Y[NMeA]NPHE[Hyp]W[Dab]W[X7][NMeNle]LCG-NH2; thioether N-14), for which the IC50 (range class) lay in the range of 10 to 99 nM.

On to `CCCC[C@H]1C(=O)N(C)[C@@H](CCCC)C(=O)N[C@@H](CC(C)C)C(=O)N[C@H](C(=O)NCC(N)=O)CSCC(=O)N[C@@H](Cc2ccc(O)cc2)C(=O)N(C)[C@@H](C)C(=O)N[C@@H](CC(N)=O)C(=O)N2CCC[C@H]2C(=O)N[C@@H](Cc2cnc[nH]2)C(=O)N[C@@H](CCC(=O)O)C(=O)N(CC)CC(=O)N[C@@H](Cc2c[nH]c3ccccc23)C(=O)N[C@@H](CCN)C(=O)N[C@@H](Cc2c[nH]c3ccccc23)C(=O)N1C` [Example 3003] ({CH2CO}-Y[NMeA]NPHE[NEtG]W[Dab]W[NMeNle][NMeNle]LCG-NH2; thioether N-14), for which, under “range class”, the IC50 was 10 to 99 nM. The same measure, in the same setting: the figure for `CCCC[C@H]1C(=O)N[C@@H](CC(C)C)C(=O)N[C@H](C(=O)NCC(N)=O)CSCC(=O)N[C@@H](Cc2ccc(O)cc2)C(=O)N(C)[C@@H](C)C(=O)N[C@@H](CC(N)=O)C(=O)N2CCC[C@H]2C(=O)N[C@@H](Cc2cnc[nH]2)C(=O)N[C@@H](CCC(=O)O)C(=O)N2C[C@H](O)C[C@H]2C(=O)N[C@@H](Cc2c[nH]c3ccccc23)C(=O)N[C@@H](CCN)C(=O)N[C@@H](Cc2c[nH]c3ccccc23)C(=O)N(CCO)[C@@H](CCCC)C(=O)N1C` [Example 3030] ({CH2CO}-Y[NMeA]NPHE[Hyp]W[Dab]W[X3][NMeNle]LCG-NH2; thioether N-14) is 10 to 99 nM; for `CCCC[C@H]1C(=O)N(C)[C@@H](CCCC)C(=O)N[C@@H](CC(C)C)C(=O)N[C@H](C(=O)NCC(N)=O)CSCC(=O)N[C@@H](Cc2ccc(O)cc2)C(=O)N(C)[C@@H](C)C(=O)N[C@@H](CC(N)=O)C(=O)N(CCN)CC(=O)N[C@@H](Cc2cnc[nH]2)C(=O)N[C@@H](CCC(=O)O)C(=O)N2C[C@H](O)C[C@H]2C(=O)N[C@@H](Cc2c[nH]c3ccccc23)C(=O)N[C@@H](CCN)C(=O)N[C@@H](Cc2c[nH]c3ccccc23)C(=O)N1C` [Example 3014] ({CH2CO}-Y[NMeA]N[Gly(N-2-aminoethyl)]HE[Hyp]W[Dab]W[NMeNle][NMeNle]LCG-NH2; thioether N-14) it is 10 to 99 nM. For the compound `CCCC[C@H]1C(=O)N(C)[C@@H](CCCC)C(=O)N[C@@H](CC(C)C)C(=O)N[C@H](C(=O)NCC(N)=O)CSCC(=O)N[C@@H](Cc2ccc(O)cc2)C(=O)N(C)[C@@H](C)C(=O)N[C@@H](CC(N)=O)C(=O)N2CCC[C@H]2C(=O)N[C@@H](Cc2cnc[nH]2)C(=O)N[C@@H](CCC(=O)O)C(=O)N(CCC(F)(F)F)CC(=O)N[C@@H](Cc2c[nH]c3ccccc23)C(=O)N[C@@H](CCN)C(=O)N[C@@H](Cc2c[nH]c3ccccc23)C(=O)N1C` [Example 3007] ({CH2CO}-Y[NMeA]NPHE[X1]W[Dab]W[NMeNle][NMeNle]LCG-NH2; thioether N-14), the IC50 (range class) lay within 10 to 99 nM.

(Values after patent US9861680B2, “Immunomodulators” (BRISTOL-MYERS SQUIBB COMPANY, priority 2014, dated 2018).)
